The values that follow come from patent US20070219186A1, “Pyrazolo[1,5-A]pyrimidine derivatives and methods of use thereof” (priority 2006, published 2007).

Broadly, the IC50 is the concentration at which inhibition is half-maximal.

The assay deals with T1, human B-Raf (Homo sapiens, UniProt P15056).
T1 construct: Flag; GST; made in house; host or cells: Sf9 insect cells (B-Raf); E. coli (MEK1-GST)
The experiment in a line: B-Raf Kinase to MEK1 ELISA. In kind it is biochemical. The following applies: for inhibition at 10 µM: read-out: % Inhib./10 uM. The method, boiled down: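 Flag/GST-tagged human B-Raf (Sf9, ~20 ng/point) phosphorylates non-active GST-MEK1 (50 nM final) with ATP and MgCl2 in MOPS pH 7.2 buffer, 60 min at RT. Product is captured on anti-GST plates; MEK1 pSer217/221 is read by phospho-antibody plus europium conjugate (DELFIA).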
On the technique in general: An ELISA detects its analyte on a solid surface through an enzyme-linked reagent.

Where [1] appears, read: median, cpd concentrations from 10 μM to 30 nM in half log dilutions, read-out: Median IC50.

Read-outs that look alike come from different tables or passages of the source.

T1 sequence (P15056 whole entry): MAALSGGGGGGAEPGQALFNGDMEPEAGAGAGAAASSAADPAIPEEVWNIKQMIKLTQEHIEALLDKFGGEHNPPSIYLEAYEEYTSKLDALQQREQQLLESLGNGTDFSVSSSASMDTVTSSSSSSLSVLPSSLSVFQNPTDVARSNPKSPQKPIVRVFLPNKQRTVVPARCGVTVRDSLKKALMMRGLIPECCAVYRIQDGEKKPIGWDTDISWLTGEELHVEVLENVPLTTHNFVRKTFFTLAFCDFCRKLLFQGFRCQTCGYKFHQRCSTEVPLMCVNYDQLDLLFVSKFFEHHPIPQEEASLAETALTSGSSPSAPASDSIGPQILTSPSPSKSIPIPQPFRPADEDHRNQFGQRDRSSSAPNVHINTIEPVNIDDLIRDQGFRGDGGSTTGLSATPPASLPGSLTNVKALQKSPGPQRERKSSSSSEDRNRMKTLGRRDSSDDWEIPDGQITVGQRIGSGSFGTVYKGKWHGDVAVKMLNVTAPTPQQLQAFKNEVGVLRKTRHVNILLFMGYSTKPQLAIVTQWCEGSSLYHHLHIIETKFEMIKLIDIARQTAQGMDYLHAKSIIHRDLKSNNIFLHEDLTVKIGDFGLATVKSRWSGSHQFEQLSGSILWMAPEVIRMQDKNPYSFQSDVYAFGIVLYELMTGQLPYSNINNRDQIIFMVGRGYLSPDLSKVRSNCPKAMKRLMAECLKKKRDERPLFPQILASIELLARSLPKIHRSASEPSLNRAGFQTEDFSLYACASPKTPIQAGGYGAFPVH

For `CCOC(=O)c1cnn2c(-c3ccc(OCc4ccccc4)c(NC(=O)c4cccc(C(F)(F)F)c4)c3)ccnc12` [Example 90, ethyl 7-(4-(benzyloxy)-3-{[3-(trifluoromethyl)benzoyl]amino}phenyl)pyrazolo[1,5-a]pyrimidine-3-carboxylate], the inhibition at 10 µM turned out to be 4%. The IC50 under setting [1] was more than 10000 nM.

For `COCCC(=O)Nc1cccc(-c2cnn3c(-c4cccc(NC(=O)c5cccc(C(F)(F)F)c5)c4)ccnc23)c1` [Example 254, N-[3-(3-{3-[(3-methoxypropanoyl)amino]phenyl}pyrazolo[1,5-a]pyrimidin-7-yl)phenyl]-3-(trifluoromethyl)benzamide], the inhibition at 10 µM worked out at 82%. Further, the concentration for half-maximal inhibition (IC50) under setting [1] came to 90 nM.

For the molecule `CCOC(=O)c1cnn2c(-c3cccc(NC(=O)c4cc(Cl)cc(Cl)c4)c3)ccnc12` [Example 72, ethyl 7-{3-[(3,5-dichlorobenzoyl)amino]phenyl}pyrazolo[1,5-a]pyrimidine-3-carboxylate], the inhibition at 10 µM stood at 4%. The 50% inhibitory concentration (IC50) under setting [1] is more than 10000 nM.

Take `CCOC(=O)c1cnn2c(-c3cccc(NC(=O)Cc4c(F)ccc(F)c4F)c3)ccnc12` [Example 102, ethyl 7-(3-{[(2,3,6-trifluorophenyl)acetyl]amino}phenyl)pyrazolo[1,5-a]pyrimidine-3-carboxylate]: the inhibition at 10 µM was determined as 0%. Further, the half-maximal inhibitory concentration (IC50) under setting [1] was more than 10000 nM.

`Cc1ccc(C(=O)Nc2cccc(-c3ccnc4c(-c5ccc(N)cc5)cnn34)c2)cc1C(F)(F)F` [Example 180, N-{3-[3-(4-aminophenyl)pyrazolo[1,5-a]pyrimidin-7-yl]phenyl}-4-methyl-3-(trifluoromethyl)benzamide]: the IC50 turned out to be 180 nM and the inhibition at 10 µM is 95%.

With `CCOC(=O)c1cnn2c(-c3cccc(NC(=O)Nc4ccc(Cl)c(C(F)(F)F)c4)c3)ccnc12` [Example 11, ethyl 7-{3-[({[4-chloro-3-(trifluoromethyl)phenyl]amino}carbonyl)amino]phenyl}pyrazolo[1,5-a]pyrimidine-3-carboxylate], the half-inhibitory concentration (IC50) under setting [1] worked out at 300 nM. Further, the inhibition at 10 µM (single point assay, 10 uM) was 93%.

Consider `O=C(Nc1cccc(-c2ccnc3cc(-c4ccc(Cl)cc4)nn23)c1)c1cccc(C(F)(F)F)c1` [Example 115, N-{3-[2-(4-chlorophenyl)pyrazolo[1,5-a]pyrimidin-7-yl]phenyl}-3-(trifluoromethyl)benzamide], for which the inhibition at 10 µM was 24%. Moreover, under setting [1], the IC50 is more than 10000 nM.

For the molecule `O=C(Nc1cccc(-c2ccnc3c(-c4cccnc4)cnn23)c1)Nc1ccc(Cl)c(C(F)(F)F)c1` [Example 174, N-[4-chloro-3-(trifluoromethyl)phenyl]-N′-[3-(3-pyridin-3-ylpyrazolo[1,5-a]pyrimidin-7-yl)phenyl]urea], the inhibition at 10 µM was 96%. Besides, the 50% inhibitory concentration (IC50) under setting [1] stood at 110 nM.

As to `CCOC(=O)c1cnn2c(-c3cccc(NC(=O)Nc4ccc(OC)c(Cl)c4)c3)ccnc12` [Example 81, ethyl 7-[3-({[(3-chloro-4-methoxyphenyl)amino]carbonyl}amino)phenyl]pyrazolo[1,5-a]pyrimidine-3-carboxylate], the inhibition at 10 µM was 50%. The IC50 under setting [1] turned out to be 6150 nM.

Take `Cc1ccc(C(=O)Nc2cccc(-c3ccnc4cc(-c5ccc(Cl)cc5)nn34)c2)cc1C(F)(F)F` [Example 118, N-{3-[2-(4-chlorophenyl)pyrazolo[1,5-a]pyrimidin-7-yl]phenyl}-4-methyl-3-(trifluoromethyl)benzamide]: the inhibition at 10 µM stood at 22%. The half-maximal inhibitory concentration (IC50) under setting [1] is more than 10000 nM.

In the case of `CN(C)CCNc1cc(-c2cc3nccc(-c4cccc(NC(=O)c5cccc(C(F)(F)F)c5)c4)n3n2)ccn1` [Example 266, N-{3-[2-(2-{[2-(dimethylamino)ethyl]amino}pyridin-4-yl)pyrazolo[1,5-a]pyrimidin-7-yl]phenyl}-3-(trifluoromethyl)benzamide], 53.3 nM corresponded to half-maximal inhibition (IC50). The “% Inhib./10 uM” value (single point assay, 10 uM) amounted to 100%.

For `CCOC(=O)c1c(C)nn2c(-c3cccc(NC(=O)c4ccc(C)c(C(F)(F)F)c4)c3)ccnc12` [Example 64, ethyl 2-methyl-7-(3-{[4-methyl-3-(trifluoromethyl)benzoyl]amino}phenyl)pyrazolo[1,5-a]pyrimidine-3-carboxylate], the inhibition at 10 µM was 4%. Further, under setting [1], the IC50 is more than 10000 nM.

On to `CCOC(=O)c1cnn2c(-c3cccc(NC(=O)c4cccc(C#N)c4)c3)ccnc12` [Example 13, ethyl 7-{3-[(3-cyanobenzoyl)amino]phenyl}pyrazolo[1,5-a]pyrimidine-3-carboxylate], for which the inhibition at 10 µM stood at 27%. The half-maximal inhibitory concentration (IC50) under setting [1] was more than 20000 nM.

Take `O=C(Nc1cccc(-c2ccnc3cc(N4CCOCC4)nn23)c1)c1ccc(Cl)c(Cl)c1` [Example 198, 3,4-dichloro-N-[3-(2-morpholin-4-ylpyrazolo[1,5-a]pyrimidin-7-yl)phenyl]benzamide]: the inhibition at 10 µM amounted to 56%. Besides, under setting [1], the IC50 came out at 1900 nM.

With `CCOC(=O)c1cnn2c(-c3cccc(NC(=O)Nc4cc(C(F)(F)F)ccc4Cl)c3)ccnc12` [Example 37, ethyl 7-{3-[({[2-chloro-5-(trifluoromethyl)phenyl]amino}carbonyl)amino]phenyl}pyrazolo[1,5-a]pyrimidine-3-carboxylate], the inhibition at 10 µM was 76%. In addition, under setting [1], the half-maximal inhibitory concentration (IC50) was determined as 6820 nM.

As for `CN(C)CC(=O)Nc1cccc(-c2cnn3c(-c4cccc(NC(=O)c5cccc(C(F)(F)F)c5)c4)ccnc23)c1` [Example 253, N-[3-(3-{3-[(N,N-dimethylglycyl)amino]phenyl}pyrazolo[1,5-a]pyrimidin-7-yl)phenyl]-3-(trifluoromethyl)benzamide], the inhibition at 10 µM is 97%. For the same molecule, the IC50 under setting [1] was 40 nM.

For the molecule `O=C(Nc1cccc(-c2ccnc3cc(N4CCOCC4)nn23)c1)Nc1ccc(Cl)c(C(F)(F)F)c1` [Example 200, N-[4-chloro-3-(trifluoromethyl)phenyl]-N′-[3-(2-morpholin-4-ylpyrazolo[1,5-a]pyrimidin-7-yl)phenyl]urea], the inhibition at 10 µM worked out at 94%. For the same molecule, the IC50 under setting [1] was 200 nM.

With `CCOC(=O)c1cnn2c(-c3cccc(NC(=O)c4ccc(C)c(C(F)(F)F)c4)c3)ccnc12` [Example 26, ethyl 7-(3-{[4-methyl-3-(trifluoromethyl)benzoyl]amino}phenyl)pyrazolo[1,5-a]pyrimidine-3-carboxylate], the IC50 under setting [1] is 500 nM. For the same molecule, the inhibition at 10 µM (single point assay, 10 uM) was 76%.

Take `N#Cc1cnn2c(-c3cccc(NC(=O)c4cccc(C(F)(F)F)c4)c3)ccnc12` [Example 63, N-[3-(3-cyanopyrazolo[1,5-a]pyrimidin-7-yl)phenyl]-3-(trifluoromethyl)benzamide]: under setting [1], the IC50 was more than 10000 nM. Besides, for the setting “single point assay, 10 uM”, the inhibition at 10 µM is 14%.

With `CCOC(=O)c1cnn2c(-c3cccc(NC(=O)c4cc5ccccc5n4C)c3)ccnc12` [Example 219, ethyl 7-(3-{[(1-methyl-1H-indol-2-yl)carbonyl]amino}phenyl)pyrazolo[1,5-a]pyrimidine-3-carboxylate], the inhibition at 10 µM was 12%. The IC50 under setting [1] was more than 10000 nM.

As for `Cc1ccc(C(=O)Nc2cccc(-c3ccnc4c(Br)cnn34)c2)cc1C(F)(F)F` [Example 161, N-[3-(3-bromopyrazolo[1,5-a]pyrimidin-7-yl)phenyl]-4-methyl-3-(trifluoromethyl)benzamide], the IC50 was 670 nM and the inhibition at 10 µM amounted to 87%.

Regarding `CN(C)Cc1ccccc1-c1cnn2c(-c3cccc(NC(=O)c4cccc(C(F)(F)F)c4)c3)ccnc12` [Example 272, N-[3-(3-{2-[(dimethylamino)methyl]phenyl}pyrazolo[1,5-a]pyrimidin-7-yl)phenyl]-3-(trifluoromethyl)benzamide], the inhibition at 10 µM came out at 92%. Besides, the IC50 under setting [1] turned out to be 117 nM.

`CCOC(=O)c1cnn2c(-c3cccc(NC(=O)Cc4cccc(Cl)c4)c3)ccnc12` [Example 94, ethyl 7-(3-{[(3-chlorophenyl)acetyl]amino}phenyl)pyrazolo[1,5-a]pyrimidine-3-carboxylate]: the inhibition at 10 µM was 14%. Under setting [1], the half-maximal inhibitory concentration (IC50) is more than 10000 nM.

Turning to `CN(CCCN)c1cc(-c2cc3nccc(-c4cccc(NC(=O)c5cccc(C(F)(F)F)c5)c4)n3n2)ccn1` [Example 269, N-[3-(2-{2-[(3-aminopropyl)(methyl)amino]pyridin-4-yl}pyrazolo[1,5-a]pyrimidin-7-yl)phenyl]-3-(trifluoromethyl)benzamide], the inhibition at 10 µM is 78%. The IC50 under setting [1] came to 2790 nM.

For `CCOC(=O)c1cnn2c(-c3cccc(NC(=O)Nc4ccc5c(c4)OCO5)c3)ccnc12` [Example 245, ethyl7-(3-{[(1,3-benzodioxol-5-ylamino)carbonyl]amino}phenyl)pyrazolo[1,5-a]pyrimidine-3-carboxylate], the inhibition at 10 µM turned out to be 18%. Besides, under setting [1], the IC50 was more than 10000 nM.

For the molecule `CCOC(=O)c1cnn2c(-c3cccc(NC(=O)Nc4ccc(C(C)C)cc4)c3)ccnc12` [Example 20, ethyl 7-[3-({[(4-isopropylphenyl)amino]carbonyl}amino)phenyl]pyrazolo[1,5-a]pyrimidine-3-carboxylate], the inhibition at 10 µM came out at 30%. The IC50 under setting [1] is more than 10000 nM.

In the case of `CN(C)CCCC(=O)Nc1ccc(-c2cnn3c(-c4cccc(NC(=O)c5cccc(C(F)(F)F)c5)c4)ccnc23)cc1` [Example 234, N-{3-[3-(4-{[4-(dimethylamino)butanoyl]amino}phenyl)pyrazolo[1,5-a]pyrimidin-7-yl]phenyl}-3-(trifluoromethyl)benzamide], the inhibition at 10 µM was 96%. For the same molecule, the concentration for half-maximal inhibition (IC50) under setting [1] came out at 19 nM.

In the case of `COC(=O)c1ccc(-c2cnn3c(-c4cccc(NC(=O)c5cccc(C(F)(F)F)c5)c4)ccnc23)cc1` [Example 297, methyl 4-[7-(3-{[3-(trifluoromethyl)benzoyl]amino}phenyl)pyrazolo[1,5-a]pyrimidin-3-yl]benzoate], it took 2190 nM to reach half-maximal inhibition (IC50) and the inhibition at 10 µM came out at 75%.
